# Results: ChEMBL document CHEMBL3632570, “Structure-Guided Design of Novel l-Cysteine Derivatives as Potent KSP Inhibitors” (ACS Med Chem Lett, 2015)
# pIC50: −log10 of the molar value. Calls of active or inactive are those of the source. No cut-off for these calls is given here.
# Key:
# [1] = target: T1, Kinesin-like protein KIF11 (Homo sapiens, UniProt P52732); test: Inhibition of His-tagged KSP motor domain (1 to 369) (unknown origin) assessed as inhibition of microtubule-stimulated KSP ATPase activity preincuabted for 30 mins followed by ATP addition measured after 15 mins by Kinase-Glo assay
# T1 sequence (P52732 whole entry): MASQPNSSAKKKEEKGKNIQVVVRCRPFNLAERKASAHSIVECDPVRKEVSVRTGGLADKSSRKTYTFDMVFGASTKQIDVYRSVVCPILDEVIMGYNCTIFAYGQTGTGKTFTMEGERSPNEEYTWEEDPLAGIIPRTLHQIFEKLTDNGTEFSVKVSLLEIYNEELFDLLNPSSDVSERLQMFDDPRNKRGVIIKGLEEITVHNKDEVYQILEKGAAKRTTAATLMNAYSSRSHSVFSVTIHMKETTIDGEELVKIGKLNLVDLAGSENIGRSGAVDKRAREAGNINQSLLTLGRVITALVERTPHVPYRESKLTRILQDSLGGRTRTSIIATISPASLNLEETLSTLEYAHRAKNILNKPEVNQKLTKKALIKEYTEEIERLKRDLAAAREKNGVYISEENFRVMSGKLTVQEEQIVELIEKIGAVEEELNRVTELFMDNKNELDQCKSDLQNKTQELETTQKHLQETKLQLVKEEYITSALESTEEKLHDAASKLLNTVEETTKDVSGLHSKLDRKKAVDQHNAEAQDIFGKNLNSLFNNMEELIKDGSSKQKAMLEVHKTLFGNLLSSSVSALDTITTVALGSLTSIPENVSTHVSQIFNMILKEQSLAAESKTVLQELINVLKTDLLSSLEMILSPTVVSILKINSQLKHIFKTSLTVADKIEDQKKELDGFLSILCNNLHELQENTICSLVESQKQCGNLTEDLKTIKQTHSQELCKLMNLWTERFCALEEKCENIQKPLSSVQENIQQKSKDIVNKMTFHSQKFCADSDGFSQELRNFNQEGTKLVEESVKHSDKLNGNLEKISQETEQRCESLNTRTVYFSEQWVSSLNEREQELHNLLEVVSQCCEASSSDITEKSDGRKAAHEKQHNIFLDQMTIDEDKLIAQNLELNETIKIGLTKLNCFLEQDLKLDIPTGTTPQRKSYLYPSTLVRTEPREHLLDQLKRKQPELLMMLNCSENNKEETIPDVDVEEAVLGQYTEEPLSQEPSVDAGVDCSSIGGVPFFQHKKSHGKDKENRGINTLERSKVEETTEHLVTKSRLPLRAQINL
# [2] = test system: HCT-116; test: Growth inhibition of human HCT116 cells after 72 hrs by MTS assay; assay type: functional, cell-based; conditions: HCT-116, 72 h
# [3] = test system: HCT-116; test: Antitumor activity against human HCT116 cells xenografted in athymic nude BALB/cAJcL mouse assessed as inhibition of tumor growth at 75 mg/kg, iv administered on days 1,3,5,8,10 and 12 measured on day 15; assay type: functional
# [4] = test system: HCT-116; test: Antitumor activity against human HCT116 cells xenografted in iv dosed athymic nude BALB/cAJcL mouse assessed as inhibition of tumor growth drug administered on days 1,3,5,8,10 and 12 measured on day 15; assay type: functional, organism-based
# [5] = test system: HCT-116; test: Antitumor activity against human HCT116 cells xenografted in athymic nude BALB/cAJcL mouse assessed as inhibition of tumor growth at 25 mg/kg, iv administered on days 1,3,5,8,10 and 12 measured on day 15; assay type: functional
# [6] = test system: HCT-116; test: Antitumor activity against human HCT116 cells xenografted in athymic nude BALB/cAJcL mouse assessed as inhibition of tumor growth at 150 mg/kg, iv administered on days 1,3,5,8,10 and 12 measured on day 15; assay type: functional
# [7] = test system: Mus musculus; test: Toxicity in athymic nude BALB/cAJcL mouse xenografted with HCT116 cells assessed as body weight loss at 25 mg/kg, iv administered on days 1,3,5,8,10 and 12 relative to vehicle-treated control; assay type: organism-based, HCT-116; conditions: in vivo
# [8] = test system: Mus musculus; test: Toxicity in athymic nude BALB/cAJcL mouse xenografted with HCT116 cells assessed as mortality at 150 mg/kg, iv administered on days 1,3,5,8,10 and 12; assay type: organism-based, HCT-116; conditions: in vivo
# [9] = test system: Mus musculus; test: Toxicity in athymic nude BALB/cAJcL mouse xenografted with HCT116 cells assessed as mortality at 75 mg/kg, iv administered on days 1,3,5,8,10 and 12; assay type: organism-based, HCT-116; conditions: in vivo
# [10] = test system: Mus musculus; test: Toxicity in athymic nude BALB/cAJcL mouse xenografted with HCT116 cells assessed as mortality at 25 mg/kg, iv administered on days 1,3,5,8,10 and 12; assay type: organism-based, HCT-116; conditions: in vivo
# [11] = target: T2, Kinesin-like protein KIF11 (Homo sapiens) (UniProt P52732)
# T2 sequence (whole entry): T1 sequence (P52732 whole entry)
# Description: Binding affinity to KSP motor domain (unknown origin) assessed as change in melting temperature at 100 uM by differential scanning fluorimetry in presence of 1 mM ATP
# [12] = test system: HCT-116; test: Antitumor activity against human HCT116 cells xenografted in athymic nude BALB/cAJcL mouse assessed as inhibition of tumor growth at 10 mg/kg, iv administered on days 1,3,5,8,10 and 12 measured on day 15; assay type: functional
# [13] = test system: HeLa; test: Cell cycle arrest at mitotic phase in human HeLa cells assessed as mitotic index after 6 hrs; assay type: functional
# [14] = test system: HeLa; test: Cell cycle arrest at mitotic phase in human HeLa cells assessed as formation of monopolar spindles at 40 nM after 6 hrs by DAPI staining-based microscopic analysis; assay type: functional
# [15] = test system: Mus musculus; test: Toxicity in athymic nude BALB/cAJcL mouse xenografted with HCT116 cells assessed as mortality at 10 mg/kg, iv administered on days 1,3,5,8,10 and 12; assay type: organism-based, HCT-116; conditions: in vivo
SMILES,pIC50 [1],pIC50 [2],also measured
N[C@@H](CSC1(c2ccc(C(F)(F)F)cc2)c2ccccc2Oc2ccccc21)C(=O)O,< 4.70,< 5.00,
Cc1ccc(C2(SC[C@H](N)C(=O)O)c3ccccc3C=Cc3ccccc32)cc1,7.85,8.47,
N[C@@H](CSC1(c2ccc(-c3ccccc3)cc2)c2ccccc2C=Cc2ccccc21)C(=O)O,5.85,6.40,
N[C@@H](CSC1(c2ccccc2)c2ccccc2CCc2ccccc21)C(=O)O,6.68,6.49,T/C [3]: 43%; TGI [4]: Dose-dependent effect; T/C [5]: 62%; T/C [6]: 23%; Activity [7]: Toxic; Activity [8]: Non-toxic; Activity [9]: Non-toxic; Activity [10]: Non-toxic; ΔTm [11]: 8 °C
N[C@@H](CSC1(c2ccc(-c3ccccc3)cc2)c2ccccc2CCc2ccccc21)C(=O)O,5.97,5.89,
N[C@@H](CSC1(c2ccc(C(F)(F)F)cc2)c2ccccc2CSc2ccccc21)C(=O)O (mixture of isomers),7.21,7.82,
N[C@@H](CSC1(c2cccc(C(F)(F)F)c2)c2ccccc2CCc2ccccc21)C(=O)O,6.62,6.91,
N[C@@H](CSC1(c2ccc(C(F)(F)F)cc2)c2ccccc2Sc2ccccc21)C(=O)O,< 4.70,< 5.00,
COc1ccc(C2(SC[C@H](N)C(=O)O)c3ccccc3C=Cc3ccccc32)cc1,8.07,8.59,ΔTm [11]: 12.5 °C
CON(C)C(=O)N1N=C(c2cc(F)ccc2F)S[C@@]1(CCCN)c1ccccc1 [FILANESIB],7.74,9.15,
N[C@@H](CSC(c1ccccc1)(c1ccccc1)c1ccccc1)C(=O)O [S-TRITYL-L-CYSTEINE],,6.04,
N[C@@H](CSC1(c2ccc(C(F)(F)F)cc2)c2ccccc2C=Cc2ccccc21)C(=O)O,7.44,8.30,T/C [12]: 31%; TGI [4]: Dose-dependent effect; T/C [5]: 12%; MI50 [13]: 12 nM; Activity [14]: Active; Activity [10]: Non-toxic; Activity [15]: Non-toxic
CC(C)(C)c1ccc(C2(SC[C@H](N)C(=O)O)c3ccccc3CCc3ccccc32)cc1,6.52,6.63,
N[C@@H](CSC1(c2ccc(Cl)cc2)c2ccccc2C=Cc2ccccc21)C(=O)O,7.92,8.41,
N[C@@H](CSC1(c2ccc(C(F)(F)F)cc2)c2ccccc2COc2ccccc21)C(=O)O (mixture of isomers),7.12,7.12,
Cc1ccc(C2(SC[C@H](N)C(=O)O)c3ccccc3CCc3ccccc32)cc1,8.03,7.60,T/C [5]: 19%; Activity [10]: Non-toxic
COc1ccc(C(SC[C@H](N)C(=O)O)(c2ccccc2)c2ccccc2)cc1,,6.67,ΔTm [11]: 9 °C
N[C@@H](CSC1(c2cccc(Cl)c2)c2ccccc2CCc2ccccc21)C(=O)O,6.80,6.20,
N[C@@H](CSC1(c2ccc(Cl)cc2)c2ccccc2CCc2ccccc21)C(=O)O,7.96,7.39,T/C [5]: 11%; Activity [7]: Toxic; Activity [10]: Non-toxic
Cc1ccccc1C1(SC[C@H](N)C(=O)O)c2ccccc2CCc2ccccc21,5.11,5.34,
Cc1ccc(C(=O)N(CCCN)[C@@H](c2nc3cc(Cl)ccc3c(=O)n2Cc2ccccc2)C(C)C)cc1 [ISPINESIB],,8.96,
N[C@@H](CSC1(c2ccc(Oc3ccccc3)cc2)c2ccccc2CCc2ccccc21)C(=O)O,6.51,6.54,
N[C@@H](CSC(c1ccccc1)(c1ccccc1)c1ccc(C(F)(F)F)cc1)C(=O)O,6.58,6.67,
N[C@@H](CSC1(c2ccccc2)c2ccccc2CCSc2ccccc21)C(=O)O (mixture of isomers),< 4.70,< 5.00,
